Measured values: publication PMC10516623 (2023)

Columns and labels:
[1] = test system: Wild-typed SAM/SAH riboswitch (Cy3-U20, 3' DNA extension, annealed to anchor DNA) (DNA:RNA, riboswitch, nucleotides 1-52 of strand 1 RNA, 53-70 DNA; strand 2 DNA) GAUACCUGUCACAACGGCUUCCUGGCGUGACGAGGUGACCUCAGUGGAGCAAACCGCTGCCGTCGCTCCG/CGGAGCGACGGCAGCGGT; test: smFRET titration, two-state isotherm (pre-folded); conditions: 100 mM KCl, 2 mM MgCl2, 40 mM HEPES pH 7.5, immobilised RNA, text b38 gives 10 μM
[2] = test system: P1x_C26Z (DNA:RNA, riboswitch, zebularine at 26 (replaces C) of strand 1; nucleotides 1-52 RNA, 53-70 DNA; strand 2 DNA) GAUACCUGUCACAACGGCUUCCUGGCGUGACGAGGUGACCUCAGUGGAGCAAACCGCTGCCGTCGCTCCG/CGGAGCGACGGCAGCGGT; test: smFRET titration, two-state isotherm (pre-folded); conditions: 100 mM KCl, 2 mM MgCl2, 40 mM HEPES pH 7.5, immobilised RNA, text b44 gives 41 μM
[3] = test system: P1x_A14P (DNA:RNA, riboswitch, purine (adenine lacking N6) at 14 (replaces A) of strand 1; nucleotides 1-52 RNA, 53-70 DNA; strand 2 DNA) GAUACCUGUCACAACGGCUUCCUGGCGUGACGAGGUGACCUCAGUGGAGCAAACCGCTGCCGTCGCTCCG/CGGAGCGACGGCAGCGGT; test: smFRET titration, two-state isotherm (pre-folded); conditions: 100 mM KCl, 2 mM MgCl2, 40 mM HEPES pH 7.5, immobilised RNA
[4] = test system: T_G16P (DNA:RNA, riboswitch, purine (adenine lacking N6) at 16 (replaces G, written as G) of strand 1; nucleotides 1-52 RNA, 53-70 DNA; strand 2 DNA) GAUACCUGUCACAACGGCUUCCUGGCGUGACGAGGUGACCUCAGUGGAGCAAACCGCTGCCGTCGCTCCG/CGGAGCGACGGCAGCGGT; test: smFRET titration, two-state isotherm (pre-folded); conditions: 100 mM KCl, 2 mM MgCl2, 40 mM HEPES pH 7.5, immobilised RNA
[5] = test system: PK_C18A/G49U/C50U (DNA:RNA, riboswitch, nucleotides 1-52 of strand 1 RNA, 53-70 DNA; strand 2 DNA) GAUACCUGUCACAACGGAUUCCUGGCGUGACGAGGUGACCUCAGUGGAUUAAACCGCTGCCGTCGCTCCG/CGGAGCGACGGCAGCGGT; test: smFRET titration, two-state isotherm (pre-folded); conditions: 100 mM KCl, 2 mM MgCl2, 40 mM HEPES pH 7.5, immobilised RNA
[6] = test system: P1x_A14C/C26U (DNA:RNA, riboswitch, nucleotides 1-52 of strand 1 RNA, 53-70 DNA; strand 2 DNA) GAUACCUGUCACACCGGCUUCCUGGUGUGACGAGGUGACCUCAGUGGAGCAAACCGCTGCCGTCGCTCCG/CGGAGCGACGGCAGCGGT; test: smFRET titration, two-state isotherm (pre-folded); conditions: 100 mM KCl, 2 mM MgCl2, 40 mM HEPES pH 7.5, immobilised RNA
[7] = test system: Wild-typed SAM/SAH riboswitch (Cy3-U20, 3' DNA extension, annealed to anchor DNA) (DNA:RNA, riboswitch, nucleotides 1-52 of strand 1 RNA, 53-70 DNA; strand 2 DNA) GAUACCUGUCACAACGGCUUCCUGGCGUGACGAGGUGACCUCAGUGGAGCAAACCGCTGCCGTCGCTCCG/CGGAGCGACGGCAGCGGT; test: smFRET vectorial folding (Rep-X unwinding), two-state isotherm; conditions: 100 mM KCl, 2 mM MgCl2, 40 mM HEPES pH 7.5, 2 mM ATP, RNA released from cDNA heteroduplex, non-equilibrium

Kd [1]: 11 µM
Kd [2]: 42 µM
Kd [3]: 61 µM
Kd [4]: 607 µM
Kd [5]: > 1000 µM
Kd [6]: 593 µM
apparent Kd [7]: 108 µM
SMILES: C[S+](CC[C@H](N)C(=O)O)C[C@H]1O[C@@H](n2cnc3c(N)ncnc32)[C@H](O)[C@@H]1O (stereo partly shown)
